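Step 1: Grow cells in 96-well plates. Step 2: Expose to compound for 48 hours at 5 concentrations. Step 3: Interpolate endpoints linearly; if unreached, use highest concentration. TGI: concentration producing complete growth inhibition.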
Columns and labels:
Assay in all cases: DTP human tumour cell line panel, 48 h
[1] = tested on: PC-3 prostate
[2] = tested on: MDA-MB-231 breast
[3] = tested on: DU-145 prostate

Measured: TGI

CCOC(=O)C1=NN(c2ccc(Cl)cc2)C2=CC(C)=NN(C)C(=S)N21
> 100 µM: all assays above

— PubChem BioAssay (NCI)
